Assay results published in ChEMBL document CHEMBL1201862, “PubChem BioAssay data set” (2004).
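In this assay, cells in 96-well plates receive the compound at five concentrations for 48 hours. Endpoints are linearly interpolated between the surrounding concentrations. Abbreviation: GI50, concentration required for 50% inhibition of growth.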 Calls of active or inactive are those of the source. Rule as the data show it: active = GI50 up to about 1.1 µM and inactive = higher.

Key:
Experiment in all cases: NCI tumour cell line growth inhibition, 48 h
A498 = test system: A498
A549 = test system: A549
BT-549 = test system: BT-549
CAKI-1 = test system: CAKI-1
CCRF-CEM = test system: CCRF-CEM
COLO 205 = test system: COLO 205
DU-145 = test system: DU-145
EKVX = test system: EKVX
HCC 2998 = test system: HCC 2998
HCT-116 = test system: HCT-116
HCT-15 = test system: HCT-15
HL-60 = test system: HL-60
HOP-62 = test system: HOP-62
HOP-92 = test system: HOP-92
HT-29 = test system: HT-29
Hs-578T = test system: Hs-578T
IGROV-1 = test system: IGROV-1
K562 = test system: K562
LOX IMVI = test system: LOX IMVI
M14 = test system: M14
MCF7 = test system: MCF7
MDA-MB-231 = test system: MDA-MB-231
MDA-MB-435 = test system: MDA-MB-435
MDA-N = test system: MDA-N
MOLT-4 = test system: MOLT-4
Malme-3M = test system: Malme-3M
NCI-H226 = test system: NCI-H226
NCI-H23 = test system: NCI-H23
NCI-H460 = test system: NCI-H460
NCI/ADR-RES = test system: NCI/ADR-RES
OVCAR-3 = test system: OVCAR-3
OVCAR-5 = test system: OVCAR-5
OVCAR-8 = test system: OVCAR-8
PC-3 = test system: PC-3
RXF 393 = test system: RXF 393
SF-268 = test system: SF-268
SF-295 = test system: SF-295
SF-539 = test system: SF-539
SK-MEL-2 = test system: SK-MEL-2
SK-MEL-5 = test system: SK-MEL-5
SK-OV-3 = test system: SK-OV-3
SN12C = test system: SN12C
SNB-75 = test system: SNB-75
SR = test system: SR
SW-620 = test system: SW-620
T47D = test system: T47D
TK-10 = test system: TK-10
U-251 = test system: U-251
UACC-257 = test system: UACC-257
UACC-62 = test system: UACC-62
UO-31 = test system: UO-31
786-0 = test system: 786-0
ACHN = test system: ACHN
KM12 = test system: KM12
NCI-H522 = test system: NCI-H522
OVCAR-4 = test system: OVCAR-4
RPMI-8226 = test system: RPMI-8226
SK-MEL-28 = test system: SK-MEL-28
SNB-19 = test system: SNB-19

O=C1CC2(CCC(O)(c3cccs3)C(C(=O)c3cccs3)C2)C(=O)c2ccccc2N1 (centres undefined)
GI50 (A498): > 100 µM (inactive)
GI50 (A549): 95.7 µM (inactive)
GI50 (BT-549): > 100 µM (inactive)
GI50 (CAKI-1): > 100 µM (inactive)
GI50 (CCRF-CEM): 22.5 µM (inactive)
GI50 (COLO 205): 33.7 µM (inactive)
GI50 (DU-145): 67.3 µM (inactive)
GI50 (EKVX): > 100 µM (inactive)
GI50 (HCC 2998): 38.5 µM (inactive)
GI50 (HCT-116): 53 µM (inactive)
GI50 (HCT-15): 28.5 µM
GI50 (HL-60): 29.2 µM (inactive)
GI50 (HOP-62): > 100 µM (inactive)
GI50 (HOP-92): > 100 µM (inactive)
GI50 (HT-29): 40.6 µM (inactive)
GI50 (Hs-578T): > 100 µM (inactive)
GI50 (IGROV-1): > 100 µM (inactive)
GI50 (K562): 40.8 µM (inactive)
GI50 (LOX IMVI): 89.3 µM (inactive)
GI50 (M14): > 100 µM (inactive)
GI50 (MCF7): 77.4 µM (inactive)
GI50 (MDA-MB-231): > 100 µM (inactive)
GI50 (MDA-MB-435): > 100 µM (inactive)
GI50 (MDA-N): > 100 µM (inactive)
GI50 (MOLT-4): 29 µM (inactive)
GI50 (Malme-3M): > 100 µM (inactive)
GI50 (NCI-H226): > 100 µM (inactive)
GI50 (NCI-H23): > 100 µM (inactive)
GI50 (NCI-H460): 16.5 µM (inactive)
GI50 (NCI/ADR-RES): 67.1 µM (inactive)
GI50 (OVCAR-3): 63.8 µM (inactive)
GI50 (OVCAR-5): > 100 µM (inactive)
GI50 (OVCAR-8): > 100 µM (inactive)
GI50 (PC-3): 51.8 µM (inactive)
GI50 (RXF 393): > 100 µM (inactive)
GI50 (SF-268): > 100 µM (inactive)
GI50 (SF-295): > 100 µM (inactive)
GI50 (SF-539): > 100 µM (inactive)
GI50 (SK-MEL-2): > 100 µM (inactive)
GI50 (SK-MEL-5): 11.8 µM (inactive)
GI50 (SK-OV-3): > 100 µM (inactive)
GI50 (SN12C): > 100 µM (inactive)
GI50 (SNB-75): 37.7 µM (inactive)
GI50 (SR): > 100 µM (inactive)
GI50 (SW-620): > 100 µM (inactive)
GI50 (T47D): 18.2 µM (inactive)
GI50 (TK-10): > 100 µM (inactive)
GI50 (U-251): 90.4 µM (inactive)
GI50 (UACC-257): > 100 µM (inactive)
GI50 (UACC-62): > 100 µM (inactive)
GI50 (UO-31): > 100 µM (inactive)

O=C(O)CCNc1ccccc1C(=O)O
GI50 (786-0): > 100 µM (inactive)
GI50 (A498): > 100 µM (inactive)
GI50 (A549): > 100 µM (inactive)
GI50 (ACHN): > 100 µM (inactive)
GI50 (BT-549): > 100 µM (inactive)
GI50 (CAKI-1): > 100 µM (inactive)
GI50 (CCRF-CEM): > 100 µM (inactive)
GI50 (COLO 205): > 100 µM (inactive)
GI50 (DU-145): > 100 µM (inactive)
GI50 (EKVX): 99.1 µM (inactive)
GI50 (HCT-116): > 100 µM (inactive)
GI50 (HCT-15): > 100 µM
GI50 (HL-60): > 100 µM (inactive)
GI50 (HOP-62): > 100 µM (inactive)
GI50 (HOP-92): > 100 µM (inactive)
GI50 (HT-29): > 100 µM (inactive)
GI50 (Hs-578T): > 100 µM (inactive)
GI50 (IGROV-1): > 100 µM (inactive)
GI50 (K562): > 100 µM (inactive)
GI50 (KM12): > 100 µM (inactive)
GI50 (LOX IMVI): > 100 µM (inactive)
GI50 (M14): > 100 µM (inactive)
GI50 (MCF7): > 100 µM (inactive)
GI50 (MDA-MB-231): > 100 µM (inactive)
GI50 (MDA-MB-435): > 100 µM (inactive)
GI50 (MDA-N): > 100 µM (inactive)
GI50 (MOLT-4): > 100 µM (inactive)
GI50 (Malme-3M): > 100 µM (inactive)
GI50 (NCI-H226): > 100 µM (inactive)
GI50 (NCI-H23): > 100 µM (inactive)
GI50 (NCI-H460): > 100 µM (inactive)
GI50 (NCI-H522): > 100 µM (inactive)
GI50 (NCI/ADR-RES): > 100 µM (inactive)
GI50 (OVCAR-3): > 100 µM (inactive)
GI50 (OVCAR-4): > 100 µM (inactive)
GI50 (OVCAR-5): > 100 µM (inactive)
GI50 (OVCAR-8): > 100 µM (inactive)
GI50 (PC-3): > 100 µM (inactive)
GI50 (RPMI-8226): > 100 µM (inactive)
GI50 (RXF 393): > 100 µM (inactive)
GI50 (SF-268): > 100 µM (inactive)
GI50 (SF-295): > 100 µM (inactive)
GI50 (SF-539): > 100 µM (inactive)
GI50 (SK-MEL-28): > 100 µM (inactive)
GI50 (SK-MEL-2): > 100 µM (inactive)
GI50 (SK-MEL-5): > 100 µM (inactive)
GI50 (SK-OV-3): > 100 µM (inactive)
GI50 (SN12C): > 100 µM (inactive)
GI50 (SNB-19): > 100 µM (inactive)
GI50 (SNB-75): > 100 µM (inactive)
GI50 (SR): > 100 µM (inactive)
GI50 (SW-620): > 100 µM (inactive)
GI50 (T47D): > 100 µM (inactive)
GI50 (TK-10): > 100 µM (inactive)
GI50 (U-251): > 100 µM (inactive)
GI50 (UACC-257): > 100 µM (inactive)
GI50 (UACC-62): > 100 µM (inactive)
GI50 (UO-31): > 100 µM (inactive)
